Calls of active or inactive are those of the source. No cut-off for these calls is given here.
Assays:
OVCAR-4 = test: Antiproliferative activity against human OVCAR-4 cells assessed as cell growth at 10 uM incubated for 48 hrs by sulforhodamine B assay relative to control; type: functional; details: read-out: Activity
SNB-75 = test: Antiproliferative activity against human SNB-75 cells assessed as cell growth at 10 uM incubated for 48 hrs by sulforhodamine B assay relative to control; type: functional; details: read-out: Activity
SF-295 = test: Antiproliferative activity against human SF-295 cells assessed as cell growth at 10 uM incubated for 48 hrs by sulforhodamine B assay relative to control; type: functional; details: read-out: Activity
HL-60(TB) = test: Antiproliferative activity against human HL-60 (TB) cells assessed as cell growth at 10 uM incubated for 48 hrs by sulforhodamine B assay relative to control; type: functional; details: read-out: Activity
RPMI-8226 = test: Antiproliferative activity against human RPMI-8226 cells assessed as cell growth at 10 uM incubated for 48 hrs by sulforhodamine B assay relative to control; type: functional; details: read-out: Activity
SF-268 = test: Antiproliferative activity against human SF-268 cells assessed as cell growth at 10 uM incubated for 48 hrs by sulforhodamine B assay relative to control; type: functional; details: read-out: Activity
U-251 = test: Antiproliferative activity against human U-251 cells assessed as cell growth at 10 uM incubated for 48 hrs by sulforhodamine B assay relative to control; type: functional; details: read-out: Activity
NCI-H23 = test: Antiproliferative activity against human NCI-H23 cells assessed as cell growth at 10 uM incubated for 48 hrs by sulforhodamine B assay relative to control; type: functional; details: read-out: Activity
NCI/ADR-RES = test: Antiproliferative activity against human NCI/ADR-RES cells assessed as cell growth at 10 uM incubated for 48 hrs by sulforhodamine B assay relative to control; type: functional; details: read-out: Activity
HT-29 = test: Antiproliferative activity against human HT-29 cells assessed as cell growth at 10 uM incubated for 48 hrs by sulforhodamine B assay relative to control; type: functional; details: read-out: Activity
NCI-H460 [1] = test: Antiproliferative activity against human NCI-H460 cells assessed as cell growth at 10 uM incubated for 48 hrs by sulforhodamine B assay relative to control; type: functional; details: read-out: Activity
SN12C = test: Antiproliferative activity against human SN12C cells assessed as cell growth at 10 uM incubated for 48 hrs by sulforhodamine B assay relative to control; type: functional; details: read-out: Activity
OVCAR-8 = test: Antiproliferative activity against human OVCAR-8 cells assessed as cell growth at 10 uM incubated for 48 hrs by sulforhodamine B assay relative to control; type: functional; details: read-out: Activity
SR = test: Antiproliferative activity against human SR cells assessed as cell growth at 10 uM incubated for 48 hrs by sulforhodamine B assay relative to control; type: functional; details: read-out: Activity
OVCAR-3 = test: Antiproliferative activity against human OVCAR-3 cells assessed as cell growth at 10 uM incubated for 48 hrs by sulforhodamine B assay relative to control; type: functional; details: read-out: Activity
786-0 = test: Antiproliferative activity against human 786-0 cells assessed as cell growth at 10 uM incubated for 48 hrs by sulforhodamine B assay relative to control; type: functional; details: read-out: Activity
MDA-MB-435 = test: Antiproliferative activity against human MDA-MB-435 cells assessed as cell growth at 10 uM incubated for 48 hrs by sulforhodamine B assay relative to control; type: functional; details: read-out: Activity
IGROV-1 = test: Antiproliferative activity against human IGROV-1 cells assessed as cell growth at 10 uM incubated for 48 hrs by sulforhodamine B assay relative to control; type: functional; details: read-out: Activity
SK-MEL-28 = test: Antiproliferative activity against human SK-MEL-28 cells assessed as cell growth at 10 uM incubated for 48 hrs by sulforhodamine B assay relative to control; type: functional; details: read-out: Activity
HCT-116 = test: Antiproliferative activity against human HCT-116 cells assessed as cell growth at 10 uM incubated for 48 hrs by sulforhodamine B assay relative to control; type: functional; details: read-out: Activity
NCI-H522 = test: Antiproliferative activity against human NCI-H522 cells assessed as cell growth at 10 uM incubated for 48 hrs by sulforhodamine B assay relative to control; type: functional; details: read-out: Activity
NCI-H460 [2] = test: Induction of apoptosis in human NCI-H460 cells assessed as late apoptotic cells at 20 uM measured after 72 hrs by Annexin V-FITC and propidium iodide staining based flow cytometry analysis (Rvb= 6.93%); type: functional
NCI-H460 [3] = test: Cell cycle arrest in human NCI-H460 cells assessed as accumulation of cells in S phase at 10 uM measured after 72 hrs by propidium iodide/RNase staining based flow cytometry analysis (Rvb= 26.87%); type: functional
NCI-H460 [4] = test: Effect on p53 expression in human NCI-H460 cells at 1 to 20 uM measured after 72 hrs by western blot analysis; type: functional, cell-based; details: dose 1-20 µM
NCI-H460 [5] = test: Induction of ROS production in human NCI-H460 cells at 20 uM incubated for 24 hrs by CM-H2DCFDA probe based flow cytometry analysis; type: functional, cell-based
NCI-H460 [6] = test: Cell cycle arrest in human NCI-H460 cells assessed as accumulation of cells in S phase at 20 uM measured after 72 hrs by propidium iodide/RNase staining based flow cytometry analysis (Rvb= 26.87%); type: functional
CAKI-1 = test: Antiproliferative activity against human CAKI-1 cells assessed as cell growth at 10 uM incubated for 48 hrs by sulforhodamine B assay relative to control; type: functional; details: read-out: Activity
NCI-H460 [7] = test: Induction of apoptosis in human NCI-H460 cells assessed as late apoptotic cells at 10 uM measured after 72 hrs by Annexin V-FITC and propidium iodide staining based flow cytometry analysis (Rvb= 6.93%); type: functional
NCI-H460 [8] = test: Inhibition of ERK phosphorylation in human NCI-H460 cells at 20 uM measured after 72 hrs by western blot analysis; type: cell-based
NCI-H460 [9] = test: Induction of apoptosis in human NCI-H460 cells assessed as late apoptotic cells at 5 uM measured after 72 hrs by Annexin V-FITC and propidium iodide staining based flow cytometry analysis (Rvb= 6.93%); type: functional
NCI-H460 [10] = test: Induction of apoptosis in human NCI-H460 cells assessed as early apoptotic cells at 5 uM measured after 72 hrs by Annexin V-FITC and propidium iodide staining based flow cytometry analysis (Rvb= 6.61%); type: functional
NCI-H460 [11] = test: Cell cycle arrest in human NCI-H460 cells assessed as accumulation of cells in G2/M phase at 5 uM measured after 72 hrs by propidium iodide/RNase staining based flow cytometry analysis (Rvb= 10.22%); type: functional
NCI-H460 [12] = test: Cell cycle arrest in human NCI-H460 cells assessed as accumulation of cells in G2/M phase at 20 uM measured after 72 hrs by propidium iodide/RNase staining based flow cytometry analysis (Rvb= 10.22%); type: functional
NCI-H460 [13] = test: Antimigratory activity against human NCI-H460 cells assessed as inhibition of cell migration measured after 24 hrs by wound healing assay; type: functional, cell-based; details: dose 5-20 µM
NCI-H460 [14] = test: Induction of ROS production in human NCI-H460 cells incubated for 24 hrs by CM-H2DCFDA probe based flow cytometry analysis; type: functional, cell-based; details: dose 5-20 µM
NCI-H460 [15] = test: Reduction in VEGFR2 mRNA expression in human NCI-H460 cells at 10 to 20 uM by real-time qPCR analysis; type: functional, cell-based; details: dose 10-20 µM
NCI-H460 [16] = test: Cell cycle arrest in human NCI-H460 cells assessed as accumulation of cells in G2/M phase at 10 uM measured after 72 hrs by propidium iodide/RNase staining based flow cytometry analysis (Rvb= 10.22%); type: functional

Row | Compound | growth at 10 µM (OVCAR-4) [%] | growth at 10 µM (SNB-75) [%] | growth at 10 µM (SF-295) [%] | growth at 10 µM (HL-60(TB)) [%] | growth at 10 µM (SF-268) [%] | growth at 10 µM (U-251) [%] | growth at 10 µM (NCI-H23) [%] | growth at 10 µM (NCI/ADR-RES) [%] | growth at 10 µM (HT-29) [%] | growth at 10 µM (NCI-H460 [1]) [%] | growth at 10 µM (SN12C) [%] | growth at 10 µM (OVCAR-8) [%] | growth at 10 µM (SR) [%] | growth at 10 µM (OVCAR-3) [%] | growth at 10 µM (786-0) [%] | growth at 10 µM (MDA-MB-435) [%] | growth at 10 µM (IGROV-1) [%] | growth at 10 µM (SK-MEL-28) [%] | growth at 10 µM (HCT-116) [%] | growth at 10 µM (NCI-H522) [%] | other results
1 | COc1cc(CNC(=O)CCCC/C=C/C(C)C)ccc1OCc1nnc(Nc2cccc(Br)c2)o1 | 85.1 | 83.5 | 84.2 | 79.8 | 92.6 | 102 | 66 | 87 | 97.7 | 97.5 | 95.7 | 98 | 67.7 | 88 | 95.6 | 101 | 92.9 | 107 | 67.6 | 68.6 | growth at 10 µM (RPMI-8226): 70.3%
2 | COc1cc(CNC(=O)CCCC/C=C/C(C)C)ccc1OCc1nnc(Nc2ccccc2F)o1 | 0.69 | 57.8 | 48 | 89.7 | 45.5 | 84 | 63.8 | 43.4 | 90 | 80.3 | 70.5 | 45.2 | 67.3 | 68.3 | 12 | 100 | 58.4 | 85.2 | 53.5 | 60.3 | growth at 10 µM (RPMI-8226): 64.9%
3 | COc1cc(CNC(=O)CCCC/C=C/C(C)C)ccc1OCc1nnc(Nc2ccc([N+](=O)[O-])cc2)o1 | 11.2 | 48.7 | 64.9 | 101 | 79.7 | 48.6 | 62.1 | 79.6 | 71.7 | 33.5 | 49 | 25 | 64.2 | 77.3 | 22.2 | 66.4 | 53.5 | 78.9 | 24.6 | 73 | Activity (NCI-H460 [2]): 17.44%; growth at 10 µM (RPMI-8226): 52.3%; Activity (NCI-H460 [3]): 29.05%; Activity (NCI-H460 [4]): inactive; Activity (NCI-H460 [5]): Active; Activity (NCI-H460 [6]): 34.83%; growth at 10 µM (CAKI-1): 33.6%; Activity (NCI-H460 [7]): 9.27%; inhibition (NCI-H460 [8]): Active; Activity (NCI-H460 [9]): 8.07%; Activity (NCI-H460 [10]): 5.45%; Activity (NCI-H460 [11]): 10.03%; Activity (NCI-H460 [12]): 8.706%; Activity (NCI-H460 [13]): Dose-dependent effect; Activity (NCI-H460 [14]): Dose-dependent effect; inhibition (NCI-H460 [15]): Active; Activity (NCI-H460 [16]): 11.81%
4 | COc1cc(CNC(=O)CCCC/C=C/C(C)C)ccc1OCc1nnc(SCCc2c[nH]c3ccccc23)o1 | 71.7 | 83.1 | 68.8 | 50.2 | 78.9 | 80.5 | 66.6 | 56.5 | 69.7 | 89.8 | 83.1 | 71.3 | 49.3 | 88.3 | 89.3 | 90.2 | 73.7 | 104 | 70 | 59.4 | –

— ChEMBL document CHEMBL5055675, “Apoptosis Inducing 1,3,4-Oxadiazole Conjugates of Capsaicin: Their In Vitro Antiproliferative and In Silico Studies” (ACS Med Chem Lett, 2021)
